Test results taken from US7030119B1, “Method for treating chronic pain using MEK inhibitors” (Warner-Lambert Company, priority 1999, dated 2006).
pIC50: −log10 of the molar value. Entries after “also recorded” stand apart in the source; their conditions may differ. Structures can show the parent of a compound that is named as a salt. Where two headings read alike, the source gives them in different places.

Columns and labels:
colon 26 cells = colon 26 cells IC50; format: cell-based; conditions: Mus musculus
[1] = tested on: streptozocin-induced static allodynia; assay: streptozocin-induced static allodynia (von Frey hairs) in diabetic rats; format: in vivo, rat
Method: Male Sprague Dawley rats (250–300 g), obtained from Bantin and Kingman, (Hull, U.K.) were housed in groups of 3. All animals were kept under a 12 h light/dark cycle (lights on at 07 h 00 min) with food and water ad libitum. All experiments were carried out by an observer blind to drug treatments.
Diabetes was induced in rats by a single i.p. injection of streptozocin (50 mg/kg) as described previously (Courteix et al., 1993).
(§1) Mechanical hypersensitivity was measured using Semmes-Weinstein von Frey hairs (Stoelting, Ill., U.S.A.). Animals were placed into wire mesh bottom cages allowing access to the underside of their paws. Animals were habituated to this environment prior to the start of the experiment. Mechanical hypersensitivity was tested by touching the plantar surface of the animals right hind paw with von Frey hairs in ascending order of force (0.7, 1.2, 1.5, 2, 3.6, 5.5, 8.5, 11.8, 15.1 and 29 g) for up to 6 sec. Once a withdrawal response was established, the paw was re-tested, starting with the next descending von Frey hair until no response occurred. The highest force of 29 g lifted the paw as well as eliciting a response, thus represented the cut off point. The lowest amount of force required to elicit a response was recorded as the paw withdrawal threshold (PWT) in grams.
PD 198306 [N-Cyclopropylmethoxy-3,4,5-trifluoro-2-(4-iodo-2-methyl-phenylamino)-benzamide] and Cl-1008 (pregabalin) were synthesized at Parke-Davis (Ann Arbor, Mich., USA). PD 198306 was suspended in cremophor:ethanol:water (1:1:8) vehicle. Pregabalin was dissolved in water. Both compounds were administered orally. Streptozocin (Aldrich, UK) was dissolved in 0.9% w/v NaCl and administered intraperitoneally. Drug administrations were made in a volume of 1 ml/kg.
The static allodynia data were analysed using a Kruskall-Wallis ANOVA for non-parametric results, followed when significant by Mann-Whitney's t test.
Static allodynia was assessed with von Frey hairs, before (baseline, BL) and 1 h after oral administration of PD 198306 (30 mg/kg, p.o.), vehicle (cremophor:ethanol:water, 1:1:8) or pregabalin (30 mg/kg, p.o.) (test). Animals were administered again the same compounds on the following day, both in the morning and the afternoon. Static allodynia was assessed only before and 1 h after the afternoon administration, in order to minimise the habituation of the animals to the testing conditions. Animals treated with pregabalin received water in the morning administration, in order to avoid the potential development of tolerance to the compound with repeated administration.
(§2) Male Sprague Dawley rats (250–300 g), obtained from Charles River, Margate, U.K.) were housed in groups of 3–6. All animals were kept under a 12 h light/dark cycle (lights on at 07 h 00 min) with food and water ad libitum. All experiments were carried out by an observer blind to drug treatments.
(§3) PD 198306 and pregabalin were administered intrathecally in a volume of 10 μl using a 100 μl Hamilton syringe by exposing the spine of the rats under brief isoflurane anaesthesia. Injections were made into the intrathecal space between lumbar region 5–6 with a 10 mm long 27 gauge needle. Penetrations were judged successful if there was a tail flick response. The wound was sealed with an autoclip and rats appeared fully awake within 2–3 min following injection.
Static allodynia was assessed with von Frey hairs, before (baseline, BL) and 0.5 h, 1 h and 2 h after intrathecal or intraplantar administration of PD 198306 (1–30 μg, i.t.), vehicle (cremophor:ethanol:water, 1:1:8) or pregabalin (10 μg, i.t.). For oral administration experiments, static allodynia was assessed with von Frey hairs, before (baseline, BL) and 1 h after oral administration of PD 198306 (3–30 mg/kg, p.o.), vehicle (cremophor:ethanol:water, 1:1:8) or pregabalin (30 mg/kg, p.o.). Animals were administered again the same compounds on the following day, both in the morning and the afternoon. […]

[2] = tested on: CCI-induced static allodynia; assay: chronic constriction injury (CCI)-induced static allodynia (von Frey hairs) in rats; format: in vivo, rat
Method: as §2
Animals were anaesthetised with 2% isoflurane 1:4 O2/N2O mixture maintained during surgery via a nose cone. The sciatic nerve was ligated as previously described by Bennett and Xie, 1988. Animals were placed on a homeothermic blanket for the duration of the procedure. After surgical preparation the common sciatic nerve was exposed at the middle of the thigh by blunt dissection through biceps femoris. Proximal to the sciatic trifurcation, about 7 mm of nerve was freed of adhering tissue and 4 ligatures (4-0 silk) were tied loosely around it with about 1 mm spacing. The incision was closed in layers and the wound treated with topical antibiotics.
as §3, §1
Static allodynia was assessed with von Frey hairs, before (baseline, BL) and 0.5 h, 1 h and 2 h after intrathecal or intraplantar administration of PD 198306 (1–30 μg, i.t.), vehicle (cremophor:ethanol:water, 1:1:8) or pregabalin (10 μg, i.t.). For oral administration experiments, static allodynia was assessed with von Frey hairs, before (baseline, BL) and 1 h after oral administration of PD 198306 (3–30 mg/kg, p.o.), vehicle (cremophor:ethanol:water, 1:1:8) or pregabalin (30 mg/kg, p.o.). Animals were administered again the same compounds on the following day, both in the morning and the afternoon. Static allodynia was assessed before and 1 h after the morning administration. In the afternoon static allodynia was assessed before, 1 h, 2 h and 3 h after administration for streptozocin treated animals. CCI animals were assessed before, 1 h and 2 h after administration
PD 198306 and pregabalin were synthesised at Parke-Davis (Ann Arbor, Mich., USA). PD 198306 was suspended in cremophor:ethanol:water (1:1:8) vehicle. Pregabalin was dissolved in water. Both compounds were administered orally, intrathecally or intraplantar in volumes of 1 ml/kg, 10 μl and 100 μl respectively. Streptozocin (Aldrich, UK) was dissolved in 0.9% w/v NaCl and administered intraperitoneally in a volume of 1 ml/kg.
Data were analysed using a Kruskall-Wallis ANOVA for non-parametric results, followed when significant by Mann-Whitney's t test vs vehicle group.
The animals and methods for developing chronic constriction injury in the rat, injecting test compounds, and evaluation of static allodynia were according to Example 2 above. […]

MEK = assay: binding affinity of MEK inhibitors; conditions: affinity of the MEK inhibitors of Biological Example 3
[3] = tested on: CCI-induced static allodynia; assay: chronic constriction injury (CCI)-induced static allodynia (von Frey hairs) in rats; format: in vivo, rat; conditions: Biological Example 3; intrathecal administration 30 μg
[4] = Biological Example 1, single administration 30 mg/kg p.o., 1 h after administration
[5] = Biological Example 2, single administration p.o. (pregabalin 30 mg/kg, PD 198306 3–30 mg/kg), 1 h after administration
[6] = Biological Example 3, intrathecal administration 30 μg
[7] = intraplantar administration 3 mg/100 μl
[8] = intrathecal administration 1–30 μg

Cc1cc(I)ccc1Nc1c(C(=O)NOCC2CC2)cc2nc[nH]c2c1F (as salt: salt) [PD 254552, 7-fluoro-6-(4-iodo-2-methyl-phenylamino)-1H-benzoimidazole-5-carboxylic acid cyclopropylmethoxy-amide]
melting point: 168 to 172 °C

Cc1cc(I)ccc1Nc1c(C(=O)O)cc2nc[nH]c2c1F [PD 205293, 7-fluoro-6-(4-iodo-2-methyl-phenylamino)-1H-benzoimidazole-5-carboxylic acid]
pIC50 (colon 26 cells; read-out: colon 26 cells, IC50): < 5.00 | melting point: 247 to 248 °C (dec.)

CC(C)C[C@H](CN)CC(=O)O [pregabalin]
effect on streptozocin-induced static allodynia [1, 4]: significantly blocked | effect on streptozocin-induced static allodynia [1, 5]: significantly blocked | effect on CCI-induced static allodynia ([2]; single administration 30 mg/kg p.o., 1 h after administration): significantly blocked

Cc1cc(I)ccc1Nc1c(C(=O)NOCC2CC2)cc2nc[nH]c2c1F [PD 254552, 7-fluoro-6-(4-iodo-2-methyl-phenylamino)-1H-benzoimidazole-5-carboxylic acid cyclopropylmethoxy-amide]
pIC50 (colon 26 cells; read-out: colon 26 cells, 1 hour pretreatment, IC50): 7.70 | effect on static allodynia, CCI model [2, 6]: blocked the maintenance of static allodynia | time for which the antiallodynic effect was evident post-injection, CCI model [2, 6]: 30 min | affinity (MEK): 5 nM

Cc1cc(I)ccc1Nc1c(C(=O)NOCC2CC2)cc(F)c(F)c1F [PD 198306, N-Cyclopropylmethoxy-3,4,5-trifluoro-2-(4-iodo-2-methyl-phenylamino)-benzamide]
effect on streptozocin-induced static allodynia ([1]; Biological Example 1, 30 mg/kg p.o., 1 h after the third administration (twice more on the following day)): significantly blocked | persistence of the effect on streptozocin-induced static allodynia ([1]; Biological Example 1, 30 mg/kg p.o., day after the third administration): disappeared by the following day | effect on streptozocin-induced static allodynia [1, 4]: had no effect | effect on streptozocin-induced static allodynia ([1]; Biological Example 2, PD 198306 30 mg/kg p.o., after the third administration (3 doses over two days), 30 mg/kg): significantly blocked; also recorded: transient effect | effect on streptozocin-induced static allodynia [1, 5]: had no effect | effect on static allodynia, streptozocin model [1, 7]: had no effect | minimum effective dose (MED), static allodynia, streptozocin model ([1]; intrathecal administration): 3 µg | effect on static allodynia, streptozocin model ([1]; intrathecal administration 30 μg): significantly blocked; also recorded: totally blocked | effect on static allodynia, streptozocin model [1, 8]: dose-dependently blocked | effect on static allodynia, CCI model ([2]; Biological Example 2, intrathecal administration 30 μg): significantly blocked; also recorded: totally blocked | effect on static allodynia, CCI model [2, 7]: had no effect | minimum effective dose (MED), static allodynia, CCI model ([2]; intrathecal administration): 10 µg | effect on static allodynia, CCI model [2, 8]: dose-dependently blocked | effect on CCI-induced static allodynia ([2]; single or multiple administration 3–30 mg/kg p.o.): neither a single or multiple administration of PD 198306 (3–30 mg/kg, p.o) had any effect; also recorded: had no effect

O=C(NOCC1CC1)c1ccc(F)c(F)c1Nc1ccc(I)cc1Cl [PD 184352]
effect on static allodynia, CCI model [2, 6]: blocked the maintenance of static allodynia | time for which the antiallodynic effect was evident post-injection, CCI model [2, 6]: 30 min | affinity (MEK): 2 nM | magnitude of the antiallodynic effect compared with 100 μg of pregabalin, CCI model [3]: similar
